Data reported in PubChem BioAssay (NCI).
Values joined by “and” are separate entries in the source; they are usually repeats but may differ in a detail not shown here. Equal entries are not always repeated.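 Step 1: Grow cells in 96-well plates. Step 2: Expose to compound for 48 hours at 5 concentrations. Step 3: Interpolate endpoints linearly; if unreached, use highest concentration. GI50 is the concentration that inhibits growth by half. TGI: total growth inhibition.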

Columns and labels:
Assay in all cases: NCI-60 cell line screen, 48 h
SK-OV-3 ovarian = system: SK-OV-3 ovarian
UACC-62 melanoma = system: UACC-62 melanoma
HCT-116 colon = system: HCT-116 colon
SK-MEL-5 melanoma = system: SK-MEL-5 melanoma
RXF 393 renal = system: RXF 393 renal
OVCAR-3 ovarian = system: OVCAR-3 ovarian
MDA-MB-435 = system: MDA-MB-435
CAKI-1 renal = system: CAKI-1 renal
KM12 colon = system: KM12 colon
SR leukemia = system: SR leukemia

Structure (SMILES)	GI50 (SK-OV-3 ovarian)	TGI (SK-OV-3 ovarian) [µM]	GI50 (UACC-62 melanoma)	TGI (UACC-62 melanoma)	GI50 (HCT-116 colon)	TGI (HCT-116 colon) [µM]	GI50 (SK-MEL-5 melanoma)	TGI (SK-MEL-5 melanoma)	GI50 (RXF 393 renal)	TGI (RXF 393 renal)	GI50 (OVCAR-3 ovarian)	TGI (OVCAR-3 ovarian) [µM]	GI50 (MDA-MB-435) [nM]	TGI (MDA-MB-435)	GI50 (CAKI-1 renal)	TGI (CAKI-1 renal) [µM]	GI50 (KM12 colon)	TGI (KM12 colon)	GI50 (SR leukemia)	TGI (SR leukemia) [µM]
O=C(CC12CC3CC(CC(C3)C1)C2)NCCOCCOCCOCCNC(=O)c1cc2c(o1)C(=O)c1ccccc1C2=O	2550 nM	6.06	343 nM	1.19 µM	1870 nM	6.33	181 nM	343 nM	1550 nM	2.95 µM	395 nM	1.79	200	0.392 µM	1930 nM	5.74	2870 nM	10.3 µM	1670 nM	8.76
O=C1c2cc([N+](=O)[O-])ccc2-c2cccc(F)c21	–	> 100	–	> 100 µM	–	> 100	–	> 100000 nM	–	> 100 µM	–	> 100	–	> 100 µM	–	> 100	–	> 100 µM	–	> 100
COc1cc2c(Oc3ccc4[nH]c(C)cc4c3F)ccnc2cc1OCC1(N)CC1	3610 nM	80.2	1640 nM	3.79 µM	745 nM	10.6	967 nM	2240 nM	671 nM	4.22 µM	809 nM	24.7	310	1.21 µM	1040 nM	6.99	1240 nM	12.5 µM	395 nM	4.31
O=C(Nc1ccc(F)cc1F)c1cc(Br)ccc1O	530 nM	3.5	1230 nM	3.82 µM	2470 nM	8.45	1590 nM	3340 nM	2400 nM	7.03 µM	2890 nM	> 100	2820	11.9 µM	1760 nM	6.66	2990 nM	10.1 µM	3050 nM	> 100
O=CN1N=C(c2ccc(Cl)cc2)CC1c1cccc(Nc2ccnc3cc(Cl)ccc23)c1 (configuration not stated)	2900 nM	> 100	1140 nM	19.6 µM	1200 nM	4.02	540 nM	1930 nM	1400 nM	5.87 µM	1100 nM	14.5	377	17.2 µM	–	–	1220 nM	76.5 µM	404 nM	3.76
CCN=c1cc2sc3cc(NCC)c(C)cc3nc-2cc1C	2580 nM	12.6	6880 nM	21.8 µM	361 nM	2.01	475 nM	1930 nM	3220 nM	18 µM	149 nM	0.714	1550	4.33 µM	1340 nM	4.6	654 nM	11 µM	1010 nM	> 100
Nc1cc(-c2cccc(OC(F)(F)F)c2)nc2ccc(N3CCCC3)cc12	71 nM and 45.6 nM and 40.6 nM	> 100	71.8 nM and 48 nM and 60.3 nM	15.8 µM and > 100 µM	38.4 nM and 32.3 nM and 25.8 nM	–	42 nM and 39.4 nM and 34.8 nM	621 nM and 670 nM and 361 nM	47.4 nM and 37.6 nM and 30.5 nM	16.4 µM and > 100 µM and > 53.5 µM	31.8 nM and 28.8 nM and 27.3 nM	–	< 10.5	0.0455 µM and 0.0346 µM and 0.034 µM	51.5 nM and 48.9 nM and 41.7 nM	> 100	38.6 nM and 33.3 nM and 37.2 nM	14.9 µM and > 100 µM	27.5 nM and 15.4 nM and 13.5 nM	–
O=C1NC(=S)NC(=O)C1=Cc1cccc2cc3ccccc3cc12	–	8.79	–	3.53 µM	–	3.74	–	5230 nM	–	3.53 µM	–	3.42	–	4.65 µM	–	4.15	–	4.08 µM	–	> 20
Cc1cc(-c2nnc(N)nc2-c2ccc(F)cc2)cc(Cl)n1	> 100000 nM	> 100	–	–	75400 nM	> 100	25500 nM	> 100000 nM	87200 nM	> 100 µM	> 100000 nM	> 100	> 100000	> 100 µM	43800 nM	> 100	> 100000 nM	> 100 µM	64000 nM	> 100
COc1ccc(-c2nc3ncccn3c2/C=C/C(=O)c2cc(OC)c(OC)c(OC)c2)cc1	2500 nM	7.01	1820 nM	3.42 µM	1170 nM	2.39	1520 nM	2870 nM	1110 nM	2.57 µM	1750 nM	4.79	2280	10.6 µM	1580 nM	5.06	1610 nM	3.04 µM	1530 nM	> 100
Cc1cc2cc3c(C)cc(=O)oc3c(C)c2o1	–	–	–	> 100 µM	–	> 100	–	> 100000 nM	–	> 100 µM	–	> 100	–	> 100 µM	–	> 100	–	> 100 µM	–	> 100
O=[N+]([O-])c1ccc(N=Nc2c(O)ccc3ccccc23)cc1	20200 nM and > 100000 nM	> 100	18300 nM and > 100000 nM	> 100 µM	–	> 100	–	> 100000 nM	38000 nM and > 100000 nM	> 100 µM	–	> 100	–	> 100 µM	–	> 100	19700 nM and > 100000 nM	> 100 µM	–	> 100
C=CCC(C(=O)O)c1ccccc1 (configuration not stated)	–	> 100	–	> 100 µM	–	> 100	–	> 100000 nM	–	> 100 µM	–	> 100	–	> 100 µM	–	> 100	–	> 100 µM	–	> 100
C=CCN(CC=C)C(=O)c1cc(C)nc2c1c(=O)n(-c1ccccc1)c(=O)n2CC(O)CN1CCN(c2ncccn2)CC1 (configuration not stated)	> 100000 nM	> 100	> 100000 nM	> 100 µM	> 100000 nM	> 100	> 100000 nM	> 100000 nM	–	–	> 100000 nM	> 100	> 100000	> 100 µM	> 100000 nM	> 100	> 100000 nM	> 100 µM	> 100000 nM	> 100
COc1c(Cl)c2c(c(OC)c1OC)-c1ccc(SC)c(=O)cc1[C@@H](NC(=O)OCC(F)(F)F)CC2	< 10 nM	> 100	< 10 nM	21.2 µM	< 10 nM	0.218	< 10 nM	18.4 nM	–	–	< 10 nM	< 0.01	< 10	< 0.01 µM	< 22.7 nM	> 56.8	< 10 nM	4.26 µM	< 10 nM	17.9
